In US9725465B2, “Biaryl acetamide compounds and methods of use thereof” (Ambit Biosciences Corporation, priority 2013, dated 2017):

Columns and labels:
FLT3 kinase = FLT3 kinase (Homo sapiens (Human), UniProt P36888); test: Competition binding assay (Kd), FLT3; conditions: competition binding
Procedure: The liganded beads were blocked with excess biotin and washed with blocking buffer (SeaBlock (Pierce), 1% BSA, 0.05% Tween 20, 1 mM DTT) to remove unbound ligand and to reduce non-specific binding. […] Test compounds were prepared as 100× stocks in DMSO and diluted into the aqueous environment. Kds were determined using an eleven point threefold serial dilutions. DMSO or control compounds were was added to control assays lacking a test compound. […] The kinase concentration in the eluates was measured by quantitative PCR.
A selectivity score (S35) is a quantitative measure of selectivity of a compound against a panel of kinases. […] Percent of control (POC) is calculated by subtracting the signal of the control compound (POC=0) from the signal of the test compound and dividing the outcome by the signal of DMSO (POC=100) minus the signal of the control compound.

KIT kinase = KIT kinase (Homo sapiens (Human), UniProt P10721); test: Competition binding assay (Kd), KIT; conditions: competition binding
How it was run: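 Kd derived from eleven-point threefold serial dilutions of compound competing with bead-bound ligand for kinase; bound kinase eluted and measured by quantitative PCR. Kinase supplied either as a T7 phage fusion or expressed in HEK-293 cells with a DNA tag; DMSO served as control.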

FLT3 kinase, sequence (P36888 27-993): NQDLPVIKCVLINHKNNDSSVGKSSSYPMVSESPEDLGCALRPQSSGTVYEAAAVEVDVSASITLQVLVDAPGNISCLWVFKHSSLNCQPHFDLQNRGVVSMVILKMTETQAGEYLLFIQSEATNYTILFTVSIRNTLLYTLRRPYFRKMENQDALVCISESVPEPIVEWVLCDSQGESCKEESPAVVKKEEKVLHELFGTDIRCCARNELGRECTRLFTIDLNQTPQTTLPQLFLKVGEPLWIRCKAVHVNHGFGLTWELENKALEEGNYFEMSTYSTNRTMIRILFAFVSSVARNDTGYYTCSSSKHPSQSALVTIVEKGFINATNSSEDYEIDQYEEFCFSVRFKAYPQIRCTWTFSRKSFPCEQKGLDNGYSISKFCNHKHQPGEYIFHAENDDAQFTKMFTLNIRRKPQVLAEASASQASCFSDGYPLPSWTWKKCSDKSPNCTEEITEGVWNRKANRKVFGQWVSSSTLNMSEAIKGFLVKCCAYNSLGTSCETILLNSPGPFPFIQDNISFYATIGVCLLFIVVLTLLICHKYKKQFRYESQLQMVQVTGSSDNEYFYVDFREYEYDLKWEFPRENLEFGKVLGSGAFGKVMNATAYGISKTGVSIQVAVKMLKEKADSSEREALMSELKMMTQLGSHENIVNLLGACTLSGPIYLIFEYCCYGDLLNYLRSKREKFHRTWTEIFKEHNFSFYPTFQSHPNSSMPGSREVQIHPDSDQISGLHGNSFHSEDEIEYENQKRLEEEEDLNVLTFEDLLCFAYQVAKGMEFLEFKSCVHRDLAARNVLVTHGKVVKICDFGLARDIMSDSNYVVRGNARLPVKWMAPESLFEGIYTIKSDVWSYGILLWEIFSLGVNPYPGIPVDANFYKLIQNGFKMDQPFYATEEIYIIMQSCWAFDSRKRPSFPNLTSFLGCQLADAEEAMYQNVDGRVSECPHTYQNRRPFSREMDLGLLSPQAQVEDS
KIT kinase, sequence (P10721 26-976): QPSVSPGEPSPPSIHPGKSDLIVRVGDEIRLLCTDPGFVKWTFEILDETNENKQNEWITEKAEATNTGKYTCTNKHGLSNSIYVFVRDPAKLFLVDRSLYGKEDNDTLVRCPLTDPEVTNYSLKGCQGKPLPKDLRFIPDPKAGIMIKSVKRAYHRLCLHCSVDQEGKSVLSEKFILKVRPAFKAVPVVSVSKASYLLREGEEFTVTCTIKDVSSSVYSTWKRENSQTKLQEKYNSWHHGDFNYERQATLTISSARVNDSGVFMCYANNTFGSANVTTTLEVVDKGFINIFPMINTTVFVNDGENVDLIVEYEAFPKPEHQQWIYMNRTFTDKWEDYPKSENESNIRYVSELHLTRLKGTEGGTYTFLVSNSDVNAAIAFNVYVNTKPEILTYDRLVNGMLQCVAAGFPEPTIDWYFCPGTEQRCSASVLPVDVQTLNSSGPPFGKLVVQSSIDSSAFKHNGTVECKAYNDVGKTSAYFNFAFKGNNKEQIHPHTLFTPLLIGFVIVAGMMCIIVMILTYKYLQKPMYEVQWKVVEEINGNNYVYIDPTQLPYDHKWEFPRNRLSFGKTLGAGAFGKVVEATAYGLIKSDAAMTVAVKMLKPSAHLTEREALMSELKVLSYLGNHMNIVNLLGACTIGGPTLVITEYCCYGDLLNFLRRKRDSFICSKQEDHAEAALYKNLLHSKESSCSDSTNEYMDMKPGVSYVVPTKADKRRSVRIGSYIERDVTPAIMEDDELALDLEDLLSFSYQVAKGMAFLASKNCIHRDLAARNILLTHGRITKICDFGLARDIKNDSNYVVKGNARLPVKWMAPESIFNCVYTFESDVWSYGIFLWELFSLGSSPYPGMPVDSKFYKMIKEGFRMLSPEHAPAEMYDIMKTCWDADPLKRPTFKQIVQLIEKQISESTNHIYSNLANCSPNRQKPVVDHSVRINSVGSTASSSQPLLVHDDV

Row | Compound | Kd (FLT3 kinase) [nM] | Kd (KIT kinase) [nM]
1 | COc1cc2nc(-c3ccc(CC(=O)Nc4cc(C5(C(F)(F)F)CC5)on4)c(F)c3)cnc2cc1OCCN1CC2CC1CO2 (centres unmarked) [Example 224, 2-[2-fluoro-4-[7-methoxy-6-[2-(2-oxa-5-azabicyclo[2.2.1]heptan-5-yl)ethoxy]quinoxalin-2-yl]phenyl]-N-[5-[1-(trifluoromethyl)cyclo-propyl]isoxazol-3-yl]acetamide] | < 5 | < 5
2 | COc1cc2ncc(-c3cc(F)c(CC(=O)Nc4cc(C(C)(C)C(F)(F)F)on4)c(F)c3)nc2cc1OC [Example 225, 2-[4-(6,7-dimethoxyquinoxalin-2-yl)-2,6-difluoro-phenyl]-N-[5-(2,2,2-trifluoro-1,1-dimethyl-ethyl)isoxazol-3-yl]acetamide] | < 5 | < 5
3 | COc1cc2ncc(-c3cc(F)c(CC(=O)Nc4cc(C5(C(F)(F)F)CC5)on4)c(F)c3)nc2cc1OC [Example 226, 2-[4-(6,7-dimethoxyquinoxalin-2-yl)-2,6-difluoro-phenyl]-N-[5-[1-(trifluoromethyl)cyclo-propyl]isoxazol-3-yl]acetamide] | < 5 | < 5
4 | COc1cc2ncc(-c3ccc(CC(=O)Nc4cc(C5(C(F)(F)F)CC5)on4)c(F)c3)nc2cc1OCCCN [Example 227, 2-[4-[7-(3-aminopropoxy)-6-methoxy-quinoxalin-2-yl]-2-fluoro-phenyl]-N-[5-[1-(trifluoromethyl)cyclo-propyl]isoxazol-3-yl]acetamide] | < 5 | < 5
5 | COc1cc2nc(-c3ccc(CC(=O)Nc4cc(C5(C(F)(F)F)CC5)nn4C)c(F)c3)cnc2cc1OCCN1CCOCC1 [Example 228, 2-[2-fluoro-4-[7-methoxy-6-(2-morpholino-ethoxy)quinoxalin-2-yl]phenyl]-N-[2-methyl-5-[1-(trifluoromethyl)cyclo-propyl]pyrazol-3-yl]acetamide] | < 5 | < 5
6 | COc1cc2ncc(-c3cnc(CC(=O)Nc4cc(C(C)(C)C(F)(F)F)on4)c(F)c3)nc2cc1OC [Example 229, 2-[5-(6,7-dimethoxyquinoxalin-2-yl)-3-fluoro-2-pyridyl]-N-[5-(2,2,2-trifluoro-1,1-dimethyl-ethyl)isoxazol-3-yl]acetamide] | < 5 | < 5
7 | COc1cc2nc(-c3ccc(CC(=O)Nc4cc(C5(C(F)(F)F)CC5)n[nH]4)c(F)c3)cnc2cc1OCCN1CCOCC1 [Example 230, 2-[2-fluoro-4-[7-methoxy-6-(2-morpholino-ethoxy)quinoxalin-2-yl]phenyl]-N-[3-[1-(trifluoro-methyl)cyclopropyl]-1H-pyrazol-5-yl]acetamide] | < 5 | < 5
8 | COc1cc2nc(-c3ccc(CC(=O)Nc4cc(C5(C(F)(F)F)CC5)on4)cc3)cnc2cc1OCCN1CCOCC1 [Example 231, 2-[4-[7-methoxy-6-(2-morpholinoethoxy)quinoxalin-2-yl]phenyl]-N-[5-[1-(trifluoromethyl)cyclo-propyl]isoxazol-3-yl]acetamide] | < 5 | < 5
9 | COc1cc2cc(-c3ccc(CC(=O)Nc4cc(C5(C(F)(F)F)CC5)on4)c(F)c3)cnc2cc1OCCN1CCOCC1 [Example 232, 2-[2-fluoro-4-[6-methoxy-7-(2-morpholinoethoxy)-3-quinolyl]phenyl]-N-[5-[1-(trifluoromethyl)cyclo-propyl]isoxazol-3-yl]acetamide] | < 5 | < 5
10 | COc1cc2nc(-c3ccc(CC(=O)Nc4cc(C5(C(F)(F)F)CC5)on4)c(F)c3)cnc2cc1C(C)(O)CO (centres unmarked) [Example 233, 2-[4-[6-(1,2-dihydroxy-1-methyl-ethyl)-7-methoxy-quinoxalin-2-yl]-2-fluoro-phenyl]-N-[5-[1-(trifluoro-methyl)cyclopropyl]isoxazol-3-yl]acetamide] | < 5 | < 5
11 | COc1cc2ncc(-c3ccc(CC(=O)Nc4cc(C5(C(F)(F)F)CC5)on4)c(F)c3)nc2cc1OCCN1CCOCC1 [Example 234, 2-[2-fluoro-4-[6-methoxy-7-(2-morpholino-ethoxy)quinoxalin-2-yl]phenyl]-N-[5-[1-(trifluoro-methyl)cyclopropyl]isoxazol-3-yl]acetamide] | < 5 | < 5
12 | COc1cc2nc(-c3ccc(CC(=O)Nc4cc(C(C)(C)C(F)(F)F)n[nH]4)c(F)c3)cnc2cc1OCCN1CCOCC1 [Example 235, 2-[2-fluoro-4-[7-methoxy-6-(2-morpholino-ethoxy)quinoxalin-2-yl]phenyl]-N-[3-(2,2,2-trifluoro-1,1-dimethyl-ethyl)-1H-pyrazol-5-yl]acetamide] | < 5 | < 5
13 | COc1cc2ncc(-c3ccc(CC(=O)Nc4cc(C5(C(F)(F)F)CC5)on4)c(F)c3)nc2cc1OCC(O)CO (centres unmarked) [Example 236, 2-[4-[7-(2,3-dihydroxypropoxy)-6-methoxy-quinoxalin-2-yl]-2-fluoro-phenyl]-N-[5-[1-(trifluoromethyl)cyclo-propyl]isoxazol-3-yl]acetamide] | < 5 | < 5
14 | COc1cc2nc(-c3ccc(CC(=O)Nc4cc(C5(C(F)(F)F)CC5)on4)c(F)c3)cnc2cc1OCCCNC(C)=O [Example 237, 2-[4-[6-(3-acetamidopropoxy)-7-methoxy-quinoxalin-2-yl]-2-fluoro-phenyl]-N-[5-[1-(trifluoromethyl)cyclo-propyl]isoxazol-3-yl]acetamide] | < 5 | < 5
15 | COc1cc2nc(-c3ccc(CC(=O)Nc4cc(C5(C(F)(F)F)CC5)on4)c(F)c3)cnc2cc1OCC(O)CO (centres unmarked) [Example 238, 2-[4-[6-(2,3-dihydroxypropoxy)-7-methoxy-quinoxalin-2-yl]-2-fluoro-phenyl]-N-[5-[1-(trifluoromethyl)cyclo-propyl]isoxazol-3-yl]acetamide] | < 5 | < 5
16 | COc1cc2ncc(-c3ccc(CC(=O)Nc4cc(C5(C(F)(F)F)CC5)on4)c(F)c3)nc2cc1OCC(C)(C)O [Example 239, 2-[2-fluoro-4-[7-(2-hydroxy-2-methyl-propoxy)-6-methoxy-quinoxalin-2-yl]phenyl]-N-[5-[1-(trifluoro-methyl)cyclopropyl]isoxazol-3-yl]acetamide] | < 5 | < 5
17 | COc1cc2nc(-c3ccc(CC(=O)Nc4cc(C5(C(F)(F)F)CC5)on4)c(F)c3)cnc2cc1OCCN1CCCOCC1 [Example 240, 2-[2-fluoro-4-[7-methoxy-6-[2-(1,4-oxazepan-4-yl)ethoxy]quinoxalin-2-yl]phenyl]-N-[5-[1-(trifluoromethyl)cyclo-propyl]isoxazol-3-yl]acetamide] | < 5 | < 5
18 | COc1cc2nc(-c3ccc(CC(=O)Nc4cc(C5(C(F)(F)F)CC5)on4)c(F)c3)cnc2cc1OCCN1CCNCC1 [Example 241, 2-[2-fluoro-4-[7-methoxy-6-(2-piperazin-1-ylethoxy)quinoxalin-2-yl]phenyl]-N-[5-[1-(trifluoromethyl)cyclo-propyl]isoxazol-3-yl]acetamide] | < 5 | < 5
19 | COc1cc2nc(-c3ccc(CC(=O)Nc4cc(C5(C(F)(F)F)CC5)on4)c(F)c3)cnc2cc1OCCN1CCO[C@H](C)C1 [Example 242, 2-[2-fluoro-4-[7-methoxy-6-[2-[(2R)-2-methylmorpholin-4-yl]ethoxy]quinoxalin-2-yl]phenyl]-N-[5-[1-(trifluoromethyl)cyclo-propyl]isoxazol-3-yl]acetamide] | < 5 | < 5
20 | COc1cc2nc(-c3ccc(CC(=O)Nc4cc(C5(C(F)(F)F)CC5)on4)c(F)c3)cnc2cc1OCCN1CCOC[C@@H]1C [Example 243, 2-[2-fluoro-4-[7-methoxy-6-[2-[(3S)-3-methylmorpholin-4-yl]ethoxy]quinoxalin-2-yl]phenyl]-N-[5-[1-(trifluoromethyl)cyclo-propyl]isoxazol-3-yl]acetamide] | < 5 | < 5
21 | COc1cc2nc(-c3ccc(CC(=O)Nc4cc(C5(C(F)(F)F)CC5)on4)c(F)c3)cnc2cc1OCCN1CC2CCC(C1)O2 [Example 244, 2-[2-fluoro-4-[7-methoxy-6-[2-(8-oxa-3-azabicyclo[3.2.1]octan-3-yl)ethoxy]quinoxalin-2-yl]phenyl]-N-[5-[1-(trifluoromethyl)cyclo-propyl]isoxazol-3-yl]acetamide] | < 5 | < 5
22 | COc1cc2nc(-c3ccc(CC(=O)Nc4cc(C5(C(F)(F)F)CC5)on4)c(F)c3)cnc2cc1OCCN1C2CCC1COC2 [Example 245, 2-[2-fluoro-4-[7-methoxy-6-[2-(3-oxa-8-azabicyclo[3.2.1]octan-8-yl)ethoxy]quinoxalin-2-yl]phenyl]-N-[5-[1-(trifluoromethyl)cyclo-propyl]isoxazol-3-yl]acetamide] | < 5 | < 5
23 | COc1cc2nc(-c3ccc(CC(=O)Nc4cc(C(C)(C)C(F)(F)F)on4)c(F)c3)cnc2cc1OCC(C)(C)O [Example 246, 2-[2-fluoro-4-[6-(2-hydroxy-2-methyl-propoxy)-7-methoxy-quinoxalin-2-yl]phenyl]-N-[5-(2,2,2-trifluoro-1,1-dimethyl-ethyl)isoxazol-3-yl]acetamide] | < 5 | < 5
24 | COc1cc2nc(-c3ccc(CC(=O)Nc4cc(C5(C(F)(F)F)CC5)on4)c(F)c3)cnc2cc1OCCN1CCOC[C@H]1C [Example 247, 2-[2-fluoro-4-[7-methoxy-6-[2-[(3R)-3-methylmorpholin-4-yl]ethoxy]quinoxalin-2-yl]phenyl]-N-[5-[1-(trifluoromethyl)cyclo-propyl]isoxazol-3-yl]acetamide] | < 5 | < 5
25 | COc1cc2nc(-c3ccc(CC(=O)Nc4cc(C5(C(F)(F)F)CC5)on4)c(F)c3)cnc2cc1OCCN1CCO[C@@H](C)C1 [Example 248, 2-[2-fluoro-4-[7-methoxy-6-[2-[(2S)-2-methylmorpholin-4-yl]ethoxy]quinoxalin-2-yl]phenyl]-N-[5-[1-(trifluoromethyl)cyclo-propyl]isoxazol-3-yl]acetamide] | < 5 | < 5
